Data set [1] can be described thus: in vivo. The settings on record: mouse, ip.
Data set [2] concerns electrically induced afterdischarge. Briefly: Depression of electrically induced afterdischarges in the cat. The following applies: for duration of afterdischarge: intravenous. On the set-up: duration of afterdischarge: unit not given here. It counts as in vivo, cat (mongrel cats of either sex). An excerpt:
N. Strow and C. L. Mitchell, Electroenceph. […] Mongrel cats of either sex weighing 1.5-3.0 kg. are anesthetized with halothane. Two pair of stainless steel screw electrodes are placed bilaterally in the skull for stimulation and recording. The cats are paralyzed with decamethonium, artifically respired and after ninety minutes allowed to blow off the halothane. […] is elicited by electrical stimulation across one pair of electrodes (5 second train of 1 millisecond pulses at 50 pulses per second at 5.0-10 milliamps). Duration of discharge is recorded from the second electrode pair. Two groups of controls are taken before test drug administration and duration of […] measured after each dose of test drug.

For data set [3], the system named is seizures induced by electroshock. Kind of data set: Protection against seizures induced by electroshock in rats. It counts as in vivo, rats (Sprague Dawley male albino). The following applies: for ED50: Rattus norvegicus, ip, 150 milliamps. From the text: After about thirty minutes, the mice are shocked via ear clip electrodes, with a 60-cycle electrical current for 0.2 second, using a current intensity of 25 milliamps. The number of mice protected against tonic extensor seizures is used as a quantal response to calculate the Ed50, by the method of Spearman and […] (see D. J. Finney, "Statistical Methodology in Biological Assay", Hofner Publishing Co., New York, N.Y. 1952, page 524). For control purposes, a group of six mice is similarly treated with diphenylhydantoin and shocked. […] Protection against seizures induced by electroshock is also shown in rats (Sprague Dawley male albino rats weighting 150 to 300 grams each). The testing procedure is identical to that used in Example 9 supra. except that the electroshock current intensity is increased from 25 to 150 milliamps to accommodate this larger species.

The subject of data set [4] is electroshock-induced seizures (tonic extensor seizures). Briefly: Protection against electroshock-induced seizures in mice. Format: in vivo, mice (Cartworth farms, male albino). The following applies: for ED50: 25 milliamps. From the text: Med. Chem. 8, 5-8, (1965). […] […] The number of mice protected against tonic extensor seizures is used as a quantal response to calculate the Ed50, by the method of Spearman and […] (see D. J. Finney, "Statistical Methodology in Biological Assay", Hofner Publishing Co., New York, N.Y. 1952, page 524). For control purposes, a group of six mice is similarly treated with diphenylhydantoin and shocked.

Setting [5] is: Mus musculus, ip, 0.5 h, absorption time 0.5 (Minutes).

Structures are written as SMILES.

Broadly, the LD50 is the dose expected to kill half of the subjects tested. A word on the ED50: it is the dose that gives a 50% effect, or the effect in half of the subjects.

In the case of `Cc1cccc(C(=O)Nc2c(C)cccc2C)c1N` [N'-(2,6-dimethylphenyl)-2-amino-3-methylbenzamide], the LD50 in data set [1] turned out to be 297 mg/kg. Moreover, the duration of afterdischarge is 31 in data set [2] (2.5 mg./kg. total dose), 27 in data set [2] (5.0 mg./kg. total dose), 4 in data set [2] (10.0 mg./kg. total dose) and 2 in data set [2] (20.0 mg./kg. total dose). For the same compound, in data set [2] (relative to diphenylhydantoin on a milligram basis), the “Relative Potency (shortening of afterdischarge)” value is reported as 1.42. Moreover, the ED50 amounted to 4.5 mg/kg in data set [3] (0.5 h, absorption time 30 min); 2.5 mg/kg in data set [3] (1 h, absorption time 60 min); 4.5 mg/kg in data set [3] (4 h, absorption time 240 min); 7.1 mg/kg in data set [3] (8 h, absorption time 480 min); 5.6 mg/kg in data set [4] (IP, absorption time 0.5 (Minutes), 0.5 min); 7 mg/kg in data set [4] (setting [5]). Further, the ED50 in data set [4] (Mus musculus, po, 1 min, absorption time 1 (Minutes)) was determined as 10 mg/kg; in data set [4] (Mus musculus, po, 2 min, absorption time 2 (Minutes)) it was 10 mg/kg; in data set [4] (Mus musculus, po, 4 min, absorption time 4 (Minutes)) it was 11 mg/kg; in data set [4] (Mus musculus, po, 8 min, absorption time 8 (Minutes)), 32 mg/kg; in data set [4] (Mus musculus, po, 16 min, absorption time 16 (Minutes)), 112 mg/kg; in data set [4] (Mus musculus, po, 0.4 h, absorption time 24 (Minutes)), 178 mg/kg. For the same compound, the 50% effect level in data set [4] (Mus musculus, po, 0.5 h, absorption time 0.5 (Minutes)) (ED50) was put at a dose of 10 mg/kg. Moreover, in data set [3] (electroshock, milligram basis), the “anticonvulsive potency compared with diphenylhydantoin” value is recorded as “more potent on a milligram basis than diphenylhydantoin”. The duration of action result in data set [4] (electroshock, Table I) is “long acting”.

For `O=C1NC(=O)C(c2ccccc2)(c2ccccc2)N1` [diphenylhydantoin, reference compound], the duration of afterdischarge in data set [2] (2.5 mg./kg. total dose) is 30; in data set [2] (5.0 mg./kg. total dose), 32; in data set [2] (10.0 mg./kg. total dose), 9; in data set [2] (20.0 mg./kg. total dose), 4. The ED50 in data set [3] (0.5 h, absorption time 30 min) turned out to be 8 mg/kg; in data set [4] (setting [5]) it was 14 mg/kg.

For the origin of these results see patent US4004029A, “Compositions and method for treating epilepsy and convulsions” (The Upjohn Company, priority 1975, dated 1977).
